Results on 9 molecules are retold here after the NIST ThermoML archive (doi:10.1016/j.jct.2014.07.023).

Molecules are shown by their SMILES. Values joined by “and” are separate entries in the source; they are usually repeats but may differ in a detail not shown here. Equal entries are not always repeated. ± gives the expanded uncertainty stated by the source.

Data set [1] in a line: molar heat capacity at constant pressure; xn = mol fraction of the nth substance listed. To be noted: 100 kPa, Liquid, Small sample (50 mg) DSC, x2 = 0.
A short description of data set [2]: molar heat capacity at constant pressure. The settings on record: 101.33 kPa, Liquid, Small sample (50 mg) DSC.

As to `CO` [methanol] + CC(O)C(C)O, the “molar heat capacity at constant pressure” value in data set [1] (293.15 K) is listed as 80.46 ± 3.4 J/K/mol; in data set [1] (298.15 K) it was 81.39 ± 3.5 J/K/mol; in data set [1] (303.15 K), 82.38 ± 3.5 J/K/mol; in data set [1] (308.15 K), 83.44 ± 3.5 J/K/mol; in data set [1] (313.15 K), 84.56 ± 3.6 J/K/mol; in data set [1] (318.15 K), 85.78 ± 3.7 J/K/mol. Also, in data set [1] (323.15 K), the “molar heat capacity at constant pressure” value was determined as 87.03 ± 3.7 J/K/mol.

`CO` [methanol] + OCCCCO: the “molar heat capacity at constant pressure” value in data set [1] (293.15 K) is given as 80.46 ± 3.4 J/K/mol; in data set [1] (298.15 K), 81.39 ± 3.5 J/K/mol; in data set [1] (303.15 K) it was 82.38 ± 3.5 J/K/mol; in data set [1] (308.15 K), 83.44 ± 3.5 J/K/mol; in data set [1] (313.15 K), 84.56 ± 3.6 J/K/mol; in data set [1] (318.15 K) it was 85.78 ± 3.7 J/K/mol. Further, the “molar heat capacity at constant pressure” value in data set [1] (323.15 K) turned out to be 87.03 ± 3.7 J/K/mol.

`CO` [methanol] + CC(O)CCO: the “molar heat capacity at constant pressure” value is listed as 80.46 ± 3.4 J/K/mol in data set [1] (293.15 K); 81.39 ± 3.5 J/K/mol in data set [1] (298.15 K); 82.38 ± 3.5 J/K/mol in data set [1] (303.15 K); 83.44 ± 3.5 J/K/mol in data set [1] (308.15 K); 84.56 ± 3.6 J/K/mol in data set [1] (313.15 K); 85.78 ± 3.7 J/K/mol in data set [1] (318.15 K). For the same molecule, the “molar heat capacity at constant pressure” value in data set [1] (323.15 K) was 87.03 ± 3.7 J/K/mol.

Consider `CO` [methanol], for which the “molar heat capacity at constant pressure” value in data set [2] (293.15 K) was 80.46 ± 3.4 J/K/mol; in data set [2] (298.15 K), 81.38 ± 3.5 J/K/mol and 81.39 ± 3.5 J/K/mol; in data set [2] (303.15 K), 82.38 ± 3.5 J/K/mol; in data set [2] (308.15 K), 83.44 ± 3.5 J/K/mol; in data set [2] (313.15 K), 84.56 ± 3.6 J/K/mol; in data set [2] (318.15 K) it was 85.78 ± 3.7 J/K/mol. For the same molecule, in data set [2] (323.15 K), the “molar heat capacity at constant pressure” value came out at 87.03 ± 3.7 J/K/mol.

For `CC(O)CCO` (stereo not drawn) [1,3-butanediol], the “molar heat capacity at constant pressure” value in data set [2] (293.15 K) is 215.84 ± 9.2 J/K/mol; in data set [2] (298.15 K), 218.89 ± 9.3 J/K/mol and 218.9 ± 9.3 J/K/mol; in data set [2] (303.15 K), 222.06 ± 9.5 J/K/mol; in data set [2] (308.15 K), 225.21 ± 9.6 J/K/mol; in data set [2] (313.15 K), 228.37 ± 9.7 J/K/mol; in data set [2] (318.15 K), 231.61 ± 9.8 J/K/mol. The “molar heat capacity at constant pressure” value in data set [2] (323.15 K) was 234.86 ± 10 J/K/mol.

As for `CCC(O)CO` (stereo not drawn) [1,2-butanediol], the “molar heat capacity at constant pressure” value in data set [2] (293.15 K) was 228.1 ± 9.6 J/K/mol; in data set [2] (298.15 K) it was 230.82 ± 9.8 J/K/mol and 230.8 ± 9.8 J/K/mol; in data set [2] (303.15 K), 233.5 ± 9.9 J/K/mol; in data set [2] (308.15 K) it was 236.21 ± 10 J/K/mol; in data set [2] (313.15 K) it was 238.91 ± 10 J/K/mol; in data set [2] (318.15 K), 241.52 ± 10 J/K/mol. For the same molecule, the “molar heat capacity at constant pressure” value in data set [2] (323.15 K) is recorded as 244.23 ± 10 J/K/mol.

`OCCCCO` [1,4-butanediol]: the “molar heat capacity at constant pressure” value in data set [2] (293.15 K) was 201.15 ± 8.6 J/K/mol; in data set [2] (298.15 K), 203.79 ± 8.7 J/K/mol and 203.76 ± 8.7 J/K/mol; in data set [2] (303.15 K), 206.56 ± 8.7 J/K/mol; in data set [2] (308.15 K), 209.44 ± 8.9 J/K/mol; in data set [2] (313.15 K) it was 212.33 ± 9 J/K/mol; in data set [2] (318.15 K), 215.39 ± 9.1 J/K/mol. Moreover, in data set [2] (323.15 K), the “molar heat capacity at constant pressure” value amounted to 218.54 ± 9.3 J/K/mol.

As for `CO` [methanol] + CCC(O)CO, the “molar heat capacity at constant pressure” value in data set [1] (293.15 K) is given as 80.46 ± 3.4 J/K/mol; in data set [1] (298.15 K), 81.39 ± 3.5 J/K/mol; in data set [1] (303.15 K), 82.38 ± 3.5 J/K/mol; in data set [1] (308.15 K) it was 83.44 ± 3.5 J/K/mol; in data set [1] (313.15 K), 84.56 ± 3.6 J/K/mol; in data set [1] (318.15 K), 85.78 ± 3.7 J/K/mol. Further, the “molar heat capacity at constant pressure” value in data set [1] (323.15 K) is reported as 87.03 ± 3.7 J/K/mol.

For `CC(O)C(C)O` (stereo not drawn) [2,3-butanediol], the “molar heat capacity at constant pressure” value in data set [2] (293.15 K) is 233.95 ± 9.9 J/K/mol; in data set [2] (298.15 K) it was 236.66 ± 10 J/K/mol and 236.63 ± 10 J/K/mol; in data set [2] (303.15 K), 239.36 ± 10 J/K/mol; in data set [2] (308.15 K) it was 242.07 ± 10 J/K/mol; in data set [2] (313.15 K) it was 244.77 ± 10 J/K/mol; in data set [2] (318.15 K) it was 247.47 ± 11 J/K/mol. For the same molecule, the “molar heat capacity at constant pressure” value in data set [2] (323.15 K) is given as 250.18 ± 11 J/K/mol.
